Laboratory results: ChEMBL document CHEMBL3792292, “Development of a potent and selective FLT3 kinase inhibitor by systematic expansion of a non-selective fragment-screening hit” (Bioorg Med Chem Lett, 2016)

Columns and labels:
[1] = target: Proto-oncogene tyrosine-protein kinase Src (Homo sapiens) (UniProt P12931); assay: Inhibition of full length human N-terminal GST-tagged SRC (1 to 536 residues) expressed in baculovirus expression system using fluorescence labelled srctide as substrate at 50 times IC50 by electrophoretic mobility shift assay relative to control
Chain of Proto-oncogene tyrosine-protein kinase Src (Homo sapiens) (P12931 2-536 limits assumed): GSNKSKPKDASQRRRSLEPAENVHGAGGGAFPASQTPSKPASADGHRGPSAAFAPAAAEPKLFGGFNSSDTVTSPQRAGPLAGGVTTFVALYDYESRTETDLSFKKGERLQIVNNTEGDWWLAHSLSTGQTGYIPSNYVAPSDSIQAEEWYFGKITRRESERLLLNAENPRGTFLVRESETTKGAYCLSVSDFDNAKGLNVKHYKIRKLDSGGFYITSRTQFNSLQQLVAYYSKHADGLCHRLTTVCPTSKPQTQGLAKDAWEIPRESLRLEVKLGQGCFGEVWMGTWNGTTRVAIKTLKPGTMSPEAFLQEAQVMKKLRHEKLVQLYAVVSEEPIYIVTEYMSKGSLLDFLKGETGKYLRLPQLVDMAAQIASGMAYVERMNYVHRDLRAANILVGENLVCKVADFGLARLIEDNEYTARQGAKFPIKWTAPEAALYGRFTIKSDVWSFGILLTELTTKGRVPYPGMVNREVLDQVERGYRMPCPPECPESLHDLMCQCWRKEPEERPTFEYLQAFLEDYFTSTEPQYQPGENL

[2] = target: Epidermal growth factor receptor (Homo sapiens) (UniProt P00533); assay: Inhibition of human N-terminal GST-tagged EGFR cytoplasmic domain (669 to 1210 residues) expressed in baculovirus expression system using fluorescence labelled srctide as substrate at 50 times IC50 by electrophoretic mobility shift assay relative to control
Chain of Epidermal growth factor receptor (Homo sapiens) (P00533 whole entry, the tested form may be a part): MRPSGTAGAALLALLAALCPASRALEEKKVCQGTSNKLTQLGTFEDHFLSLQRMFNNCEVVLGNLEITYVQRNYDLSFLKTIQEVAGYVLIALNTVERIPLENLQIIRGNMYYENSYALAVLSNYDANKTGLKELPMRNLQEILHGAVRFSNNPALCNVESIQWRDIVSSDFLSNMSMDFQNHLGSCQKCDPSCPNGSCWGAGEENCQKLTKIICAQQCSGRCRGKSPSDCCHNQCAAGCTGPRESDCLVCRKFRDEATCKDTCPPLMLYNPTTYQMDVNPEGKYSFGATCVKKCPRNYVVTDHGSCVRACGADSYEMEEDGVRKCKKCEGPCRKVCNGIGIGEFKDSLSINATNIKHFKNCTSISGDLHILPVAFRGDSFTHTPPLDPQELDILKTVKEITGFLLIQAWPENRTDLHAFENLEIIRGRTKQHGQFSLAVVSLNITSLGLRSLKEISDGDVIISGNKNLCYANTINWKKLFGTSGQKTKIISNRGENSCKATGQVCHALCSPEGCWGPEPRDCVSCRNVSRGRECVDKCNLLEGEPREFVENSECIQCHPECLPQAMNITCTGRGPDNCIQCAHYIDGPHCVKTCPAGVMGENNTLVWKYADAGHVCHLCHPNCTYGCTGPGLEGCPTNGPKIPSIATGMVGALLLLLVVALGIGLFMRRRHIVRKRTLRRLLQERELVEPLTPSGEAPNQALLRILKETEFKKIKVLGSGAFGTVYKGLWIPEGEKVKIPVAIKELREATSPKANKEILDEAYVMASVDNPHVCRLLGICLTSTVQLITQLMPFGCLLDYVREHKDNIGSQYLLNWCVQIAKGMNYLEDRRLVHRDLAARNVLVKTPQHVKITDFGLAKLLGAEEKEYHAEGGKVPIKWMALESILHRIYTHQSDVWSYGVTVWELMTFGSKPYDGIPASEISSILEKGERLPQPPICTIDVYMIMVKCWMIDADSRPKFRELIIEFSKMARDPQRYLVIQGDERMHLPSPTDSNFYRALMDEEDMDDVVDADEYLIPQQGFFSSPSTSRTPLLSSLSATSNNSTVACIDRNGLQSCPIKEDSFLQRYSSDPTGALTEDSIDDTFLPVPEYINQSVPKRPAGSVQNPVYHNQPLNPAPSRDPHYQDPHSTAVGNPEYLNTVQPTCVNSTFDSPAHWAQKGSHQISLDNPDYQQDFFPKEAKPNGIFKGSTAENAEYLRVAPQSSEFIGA

[3] = target: Insulin-like growth factor 1 receptor (Homo sapiens) (UniProt P08069); assay: Inhibition of human N-terminal GST-tagged IGF1R cytoplasmic domain (959 to 1367 residues) expressed in baculovirus expression system using fluorescence labelled IRS1 as substrate at 50 times IC50 by electrophoretic mobility shift assay relative to control
Chain of Insulin-like growth factor 1 receptor (Homo sapiens) (P08069 31-736 limits assumed): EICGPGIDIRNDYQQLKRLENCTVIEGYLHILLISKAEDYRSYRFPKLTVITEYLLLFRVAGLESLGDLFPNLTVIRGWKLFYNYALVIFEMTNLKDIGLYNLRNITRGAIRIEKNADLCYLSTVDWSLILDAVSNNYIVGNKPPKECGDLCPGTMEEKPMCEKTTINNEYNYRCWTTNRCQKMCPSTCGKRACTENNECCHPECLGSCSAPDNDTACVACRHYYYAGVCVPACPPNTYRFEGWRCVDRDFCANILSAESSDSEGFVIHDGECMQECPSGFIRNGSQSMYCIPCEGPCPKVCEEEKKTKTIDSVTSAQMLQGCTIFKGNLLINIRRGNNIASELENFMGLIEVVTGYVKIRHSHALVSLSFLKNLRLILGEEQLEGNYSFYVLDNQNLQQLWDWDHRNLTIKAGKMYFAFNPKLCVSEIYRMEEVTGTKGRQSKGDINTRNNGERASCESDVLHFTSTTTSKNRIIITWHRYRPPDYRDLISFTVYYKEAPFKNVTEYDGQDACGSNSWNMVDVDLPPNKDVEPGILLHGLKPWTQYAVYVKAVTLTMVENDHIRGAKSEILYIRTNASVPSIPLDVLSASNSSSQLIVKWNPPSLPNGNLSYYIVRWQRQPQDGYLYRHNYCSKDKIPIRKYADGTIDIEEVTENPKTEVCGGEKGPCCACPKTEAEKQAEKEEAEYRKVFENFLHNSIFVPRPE
Chain of Insulin-like growth factor 1 receptor (Homo sapiens) (P08069 741-1367 limits assumed): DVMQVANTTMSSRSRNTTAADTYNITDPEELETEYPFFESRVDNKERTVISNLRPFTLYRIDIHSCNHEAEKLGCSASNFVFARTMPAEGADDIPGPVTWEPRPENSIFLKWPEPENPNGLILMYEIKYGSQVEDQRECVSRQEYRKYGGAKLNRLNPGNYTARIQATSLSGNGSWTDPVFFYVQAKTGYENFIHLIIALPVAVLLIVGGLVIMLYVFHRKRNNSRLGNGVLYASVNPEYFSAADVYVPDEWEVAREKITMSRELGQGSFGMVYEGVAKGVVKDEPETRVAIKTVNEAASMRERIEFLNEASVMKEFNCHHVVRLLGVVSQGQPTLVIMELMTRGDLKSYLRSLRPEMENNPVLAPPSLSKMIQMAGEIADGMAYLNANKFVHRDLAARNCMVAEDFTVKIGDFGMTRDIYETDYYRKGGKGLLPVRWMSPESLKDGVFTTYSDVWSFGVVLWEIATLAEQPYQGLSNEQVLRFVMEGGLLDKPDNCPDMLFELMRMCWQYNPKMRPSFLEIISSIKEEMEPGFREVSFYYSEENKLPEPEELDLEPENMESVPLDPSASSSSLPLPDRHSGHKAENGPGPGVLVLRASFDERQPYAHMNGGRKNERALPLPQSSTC

[4] = target: Serine/threonine-protein kinase PAK 2 (Homo sapiens) (UniProt Q13177); assay: Inhibition of full length human N-terminal GST-tagged PAK2 (1 to 524 residues) expressed in baculovirus expression system using fluorescence labelled DAPK1tide as substrate at 50 times IC50 by electrophoretic mobility shift assay relative to control
Chain of Serine/threonine-protein kinase PAK 2 (Homo sapiens) (Q13177 whole entry, the tested form may be a part): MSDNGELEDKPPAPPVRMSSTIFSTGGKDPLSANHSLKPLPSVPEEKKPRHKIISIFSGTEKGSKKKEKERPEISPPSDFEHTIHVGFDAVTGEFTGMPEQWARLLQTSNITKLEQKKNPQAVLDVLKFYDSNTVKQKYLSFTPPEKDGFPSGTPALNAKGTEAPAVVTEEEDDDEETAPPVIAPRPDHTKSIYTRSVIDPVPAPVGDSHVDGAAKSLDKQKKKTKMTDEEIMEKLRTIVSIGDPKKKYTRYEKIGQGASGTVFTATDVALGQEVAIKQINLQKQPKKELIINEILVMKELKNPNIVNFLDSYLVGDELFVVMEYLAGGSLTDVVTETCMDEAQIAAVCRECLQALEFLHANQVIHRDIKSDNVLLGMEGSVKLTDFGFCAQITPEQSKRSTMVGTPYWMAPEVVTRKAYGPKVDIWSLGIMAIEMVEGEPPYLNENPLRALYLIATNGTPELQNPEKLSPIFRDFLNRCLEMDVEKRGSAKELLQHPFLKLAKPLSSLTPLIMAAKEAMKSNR

[5] = target: Protein kinase C alpha type (Homo sapiens) (UniProt P17252); assay: Inhibition of full length human N-terminal GST-tagged PKCalpha (1 to 672 residues) expressed in baculovirus expression system using fluorescence labelled PKC peptide substrate at 50 times IC50 by electrophoretic mobility shift assay relative to control
[6] = target: T1, Serine/threonine-protein kinase D2 (Homo sapiens) (UniProt Q9BZL6); assay: Inhibition of full length human N-terminal GST-tagged PKD2 (1 to 878 residues) expressed in baculovirus expression system using fluorescence labelled GS peptide substrate at 50 times IC50 by electrophoretic mobility shift assay relative to control
T1 sequence (whole entry): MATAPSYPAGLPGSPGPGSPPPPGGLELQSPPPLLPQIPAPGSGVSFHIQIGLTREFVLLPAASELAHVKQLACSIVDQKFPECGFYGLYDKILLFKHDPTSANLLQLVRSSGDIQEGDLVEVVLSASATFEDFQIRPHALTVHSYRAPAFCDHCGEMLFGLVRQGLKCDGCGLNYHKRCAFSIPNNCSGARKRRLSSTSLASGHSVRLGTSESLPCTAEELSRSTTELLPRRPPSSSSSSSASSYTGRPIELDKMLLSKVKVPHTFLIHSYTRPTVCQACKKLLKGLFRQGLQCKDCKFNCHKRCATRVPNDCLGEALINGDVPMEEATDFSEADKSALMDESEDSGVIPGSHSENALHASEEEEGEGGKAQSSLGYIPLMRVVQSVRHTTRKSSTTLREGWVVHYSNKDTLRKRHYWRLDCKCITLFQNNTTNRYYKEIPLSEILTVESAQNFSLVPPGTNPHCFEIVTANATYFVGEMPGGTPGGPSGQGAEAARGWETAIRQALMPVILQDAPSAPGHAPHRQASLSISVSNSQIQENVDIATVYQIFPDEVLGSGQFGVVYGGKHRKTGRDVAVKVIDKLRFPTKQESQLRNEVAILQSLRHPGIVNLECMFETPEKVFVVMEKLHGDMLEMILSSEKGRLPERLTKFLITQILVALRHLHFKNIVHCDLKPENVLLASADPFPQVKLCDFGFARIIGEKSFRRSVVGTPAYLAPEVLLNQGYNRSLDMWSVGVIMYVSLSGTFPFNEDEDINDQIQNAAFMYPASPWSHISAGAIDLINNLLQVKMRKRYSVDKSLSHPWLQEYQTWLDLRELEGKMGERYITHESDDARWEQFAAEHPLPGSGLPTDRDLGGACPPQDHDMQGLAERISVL

[7] = target: Rho-associated protein kinase 1 (Homo sapiens) (UniProt Q13464); assay: Inhibition of human N-terminal GST-tagged ROCK1 catalytic domain (1 to 477 residues) expressed in baculovirus expression system using fluorescence labelled LIMKtide substrate at 50 times IC50 by electrophoretic mobility shift assay relative to control
[8] = target: T2, Serine/threonine-protein kinase Sgk1 (Homo sapiens) (UniProt O00141); assay: Inhibition of human N-terminal GST-tagged SGK (61 to 431 residues) expressed in baculovirus expression system coexpressing His-tagged PDK1 (1 to 556 residues) using fluorescence labelled SGKtide as substrate at 50 times IC50 by electrophoretic mobility shift assay relative to control
T2 sequence (whole entry): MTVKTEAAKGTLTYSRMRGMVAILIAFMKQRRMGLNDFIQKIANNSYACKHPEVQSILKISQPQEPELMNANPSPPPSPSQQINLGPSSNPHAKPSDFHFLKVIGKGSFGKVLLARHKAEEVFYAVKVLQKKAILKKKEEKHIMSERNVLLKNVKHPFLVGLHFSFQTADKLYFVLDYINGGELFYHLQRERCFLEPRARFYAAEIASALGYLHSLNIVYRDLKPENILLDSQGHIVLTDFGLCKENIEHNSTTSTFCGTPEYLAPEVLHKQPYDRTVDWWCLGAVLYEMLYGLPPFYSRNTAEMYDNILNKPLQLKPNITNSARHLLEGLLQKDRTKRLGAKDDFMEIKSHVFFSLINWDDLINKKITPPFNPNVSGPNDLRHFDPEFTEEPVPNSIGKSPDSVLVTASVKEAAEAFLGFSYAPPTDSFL

SMILES	inhibition [1] [%]	inhibition [2] [%]	inhibition [3] [%]	inhibition [4] [%]	inhibition [5] [%]	inhibition [6] [%]	inhibition [7] [%]	inhibition [8] [%]
O=C(Nc1ccc(C(=O)N2CCN(c3ccccc3)CC2)cc1)c1n[nH]c2ccccc12	2.5	0.1	1.9	-1.6	10.6	5.7	6.9	26.3
O=C(Nc1ccc(CN2CCN(c3ccccc3)CC2)cc1)c1n[nH]c2ccccc12	0.6	1.7	0.5	0.6	-0.9	4.5	1.9	11.9
O=C(Nc1ccccc1)c1n[nH]c2ccccc12	6.1	9.1	18.2	0.8	2.4	1.3	3.3	42.4
